Laboratory results reported in patent US12433913B2, “Treatment of acute respiratory disease syndrome (ARDS) with polysulfated polysaccharides” (Paradigm Biopharmaceuticals Ltd., priority 2020, dated 2025).
“And” between values parts separate entries of the source, which are not always exact repeats. Identical values can stand only once. Like-named read-outs stand apart in the source and are kept apart here.

What was measured:
SARS-CoV-2 [1] = type: cell-based, Vero (Africa Green Monkey kidney epithelium); details: for PFU/well: replicates
SARS-CoV-2 [2] = type: cell-based, Vero (Africa Green Monkey kidney epithelium); details: for PFU/well: replicates; remark: listed apart in the source
SARS-CoV-2 [3] = type: cell-based, Vero (Africa Green Monkey kidney epithelium); details: for PFU/well: replicates; remark: listed apart in the source
[4] = tested on: H1N1 PR-8 influenza strain; assay: Influenza virus-induced ARDS mouse model (Study 1); type: in vivo, C57BL/6J mice
alphavirus = details: within 3 to 10 days post PPS treatment in infected animals; cited from earlier work
IL-8, MCP-1 and MIP-1a = details: cited from earlier work
[5] = biological target: T1, human leukocyte elastase (human neutrophil elastase) (Homo sapiens, UniProt P08246); details: cited from earlier work
T1 sequence (P08246 30-267): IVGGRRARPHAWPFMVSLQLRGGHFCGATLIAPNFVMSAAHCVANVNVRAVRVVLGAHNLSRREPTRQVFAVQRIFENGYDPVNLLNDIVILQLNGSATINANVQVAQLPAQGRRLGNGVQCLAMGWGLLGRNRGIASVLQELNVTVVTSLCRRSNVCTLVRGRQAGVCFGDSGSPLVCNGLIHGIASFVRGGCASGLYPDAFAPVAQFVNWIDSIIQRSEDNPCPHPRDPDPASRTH

allergen induced asthma = details: intra-tracheal PPS; cited from earlier work
[6] = 2 mg/kg twice weekly subcutaneously; cited from earlier work

Substance: pentosan polysulfate [PPS]
- PFU/well (SARS-CoV-2 [1]; PPS 12.5 μg/ml on Vero cells 30 min prior to infection with 50 PFU): 35 PFU/well and 33 PFU/well and 34 PFU/well and 40 PFU/well and 41 PFU/well and 39 PFU/well and 36 PFU/well and 37 PFU/well
- PFU/well (SARS-CoV-2 [1]; PPS 25 μg/ml on Vero cells 30 min prior to infection with 50 PFU): 29 PFU/well and 31 PFU/well and 27 PFU/well and 25 PFU/well
- PFU/well (SARS-CoV-2 [1]; PPS 200 μg/ml on Vero cells 30 min prior to infection with 50 PFU): 18 PFU/well (2×) and 16 PFU/well (2×) and 20 PFU/well and 21 PFU/well and 17 PFU/well and 19 PFU/well
- Maximum inhibition of plaque formation (SARS-CoV-2 [1]; top dose of 200 μg/ml, cells treated 30 min prior to infection): 60%
- PFU/well (SARS-CoV-2 [2]; PPS 12.5 μg/ml incubated with virus inoculum 30 min prior to addition to Vero cells): 31 PFU/well and 33 PFU/well and 39 PFU/well and 34 PFU/well and 42 PFU/well and 38 PFU/well and 40 PFU/well and 37 PFU/well
- PFU/well (SARS-CoV-2 [2]; PPS 25 μg/ml incubated with virus inoculum 30 min prior to addition to Vero cells): 25 PFU/well and 28 PFU/well (2×) and 31 PFU/well (2×) and 34 PFU/well and 33 PFU/well and 35 PFU/well
- PFU/well (SARS-CoV-2 [2]; PPS 50 μg/ml incubated with virus inoculum 30 min prior to addition to Vero cells): 24 PFU/well and 21 PFU/well and 28 PFU/well and 31 PFU/well and 32 PFU/well and 30 PFU/well and 29 PFU/well and 26 PFU/well
- PFU/well (SARS-CoV-2 [2]; PPS 100 μg/ml incubated with virus inoculum 30 min prior to addition to Vero cells): 19 PFU/well and 17 PFU/well and 23 PFU/well and 26 PFU/well and 22 PFU/well (2×) and 25 PFU/well and 27 PFU/well
- PFU/well (SARS-CoV-2 [2]; PPS 200 μg/ml incubated with virus inoculum 30 min prior to addition to Vero cells): 16 PFU/well and 12 PFU/well and 20 PFU/well (2×) and 22 PFU/well and 21 PFU/well and 23 PFU/well and 24 PFU/well
- Maximum inhibition of plaque formation (SARS-CoV-2 [2]; top dose of 200 μg/ml, virus treated 30 min prior to infection): 56%
- PFU/well (SARS-CoV-2 [3]; PPS 12.5 μg/ml incubated with both virus and cells 30 min prior to infection): 18 PFU/well and 19 PFU/well and 17 PFU/well and 22 PFU/well and 20 PFU/well (2×) and 25 PFU/well and 26 PFU/well
- PFU/well (SARS-CoV-2 [3]; PPS 25 μg/ml incubated with both virus and cells 30 min prior to infection): 18 PFU/well and 15 PFU/well (2×) and 20 PFU/well and 21 PFU/well and 19 PFU/well and 22 PFU/well and 17 PFU/well
- PFU/well (SARS-CoV-2 [3]; PPS 50 μg/ml incubated with both virus and cells 30 min prior to infection): 12 PFU/well and 14 PFU/well (2×) and 15 PFU/well and 13 PFU/well and 18 PFU/well (2×) and 16 PFU/well
- PFU/well (SARS-CoV-2 [3]; PPS 100 μg/ml incubated with both virus and cells 30 min prior to infection): 8 PFU/well and 12 PFU/well and 11 PFU/well and 7 PFU/well and 13 PFU/well and 10 PFU/well and 16 PFU/well and 9 PFU/well
- PFU/well (SARS-CoV-2 [3]; PPS 200 μg/ml incubated with both virus and cells 30 min prior to infection): 6 PFU/well and 12 PFU/well and 10 PFU/well (2×) and 8 PFU/well and 11 PFU/well and 14 PFU/well and 13 PFU/well
- Maximum inhibition of plaque formation (SARS-CoV-2 [3]; top dose of 200 μg/ml, virus and cells treated 30 min prior to infection): 77%
- Number of nuclei/mm^2 in lung sections ([4]; 3 mg/kg daily ip, Day 8, compared to vehicle treated animals): statistically significant reduction
- Number of nuclei/mm^2 in lung sections ([4]; 3 mg/kg daily sc, Day 8, compared to vehicle treated animals): statistically significant reduction
- Level of nuclei/mm^2 in infected PPS treated animals relative to uninfected animals ([4]; 3 mg/kg daily, Day 8): comparable to uninfected animals
- Weight loss ([4]; 3 mg/kg daily, ip or sc, compared to infected animals treated with vehicle): reduced weight loss
- Cellular infiltration in representative lung sections ([4]; 3 mg/kg ip or sc, Day 8, compared to vehicle treated animals): reduced cellular infiltration
- Fibrotic response (collagen, Masson's Trichrome stain) ([4]; 3 mg/kg sc from Day 0 or Day 2 post-infection, Day 21, compared to vehicle): fibrotic response was reduced
- Oxygen saturation levels ([4]; 3 mg/kg sc from Day 0 or Day 2 post-infection, measured Day 6 and Day 8, compared to vehicle treated infected animals): improved oxygen saturation levels
- Cytokine response (IL-1a; IL-2, IL-6, MIP1a and CCL2) (alphavirus): reduction
- Cell movement induced by IL-8, MCP-1 and MIP-1a (IL-8, MCP-1 and MIP-1a): inhibits cell movement
- Activity on human leukocyte elastase [5]: antagonist
- Airway hyper-reactivity (allergen induced asthma): inhibited
- Lung compliance (allergen induced asthma): increased
- Total number of infiltrating leukocytes and neutrophils in the bronchoalveolar fluid (allergen induced asthma): significantly reduced
- Total protein content in the bronchoalveolar fluid (allergen induced asthma): significantly reduced
- Effect on blood coagulation [6]: no lasting effect on blood coagulation
